These results are taken from US11485726B2, “Compound for inhibiting and degrading tyrosine protein kinase ALK” (SHANGHAI MEIZER PHARMACEUTICALS CO., LTD., priority 2017, dated 2022).

For one experiment, the system named is SU-DHL-1 cells. As to the kind of experiment: Inhibition of proliferation of SU-DHL-1 cells by CTG assay. The format is cell-based. The following applies: Homo sapiens, compound 100 μM, 72 hours. As to the method: Example 7 Testing the Inhibitory Effect of Formula Compound on the Proliferation of SU-DHL-1 Cells by CTG Assay
The inhibitory effect of the compound on the proliferation of SU-DHL-1 cells ([…]) was determined by the […] method in vitro. The Cells were cultured and the compound was prepared referring to the method of […], and the culture time after administration was 72 hours. Subsequently, an appropriate amount of CTG reagent was added, the luminescence value was measured, and the inhibition rate was calculated.

In experiment [1] the target is T1, ALK kinase (Homo sapiens, UniProt Q9UM73). As to the kind of experiment: ALK inhibition activity by Caliper assay. The format is biochemical. The settings on record: compound 100 nM. On the procedure:
Example 5 Testing the ALK Inhibition Activity of Compound by Caliper Assay
The experimental steps were as follows:
Preparation of 1×kinase reaction buffer (50 mM HEPES, PH 7.5; 0.0015% Brij-35) and kinase reaction termination solution (100 mM HEPES, PH 7.5; 0.0015% Brij-35; 0.2% Coating Reagent; 50 mM EDTA);
Preparation of experimental samples: 100 μl of 5 μM sample solution (dissolved in 100% DMSO) was added to a 96-well plate to obtain a 50×sample solution. As controls, two wells containing only 100 μL of 100% DMSO were set on the same plate. One was served as a control without samples and the other was served as a control without enzymes. 10 μL of sample and 90 μL, of 1×kinase reaction buffer were added to a 96-well plate as a transfer plate. The transfer plate was shaken for 10 minutes.
Preparation of the test plate: taking 5 μL of each of the prepared samples from the 96-well transfer plate into a 384-well plate.
Kinase reaction: to 5 μL of 5×compound solution (dissolved in DMSO, diluted 10 times with water) was added 10 μL of 2.5×ALK kinase solution (kinase was diluted with 1×kinase reaction buffer), which was incubated at room temperature for 10 min, and then 10 μL of 2.5×substrate peptide solution (FAM-labeled peptide and ATP were diluted with 1×kinase reaction buffer) was added.
Termination of the kinase reaction: 25 μL of kinase reaction termination solution was added after being reacted at 28° C. for a period of time.
The fluorescence (F) was tested on a Caliper and data was collected.
The inhibition rate of kinase activity was calculated: the percent inhibition rate of kinase activity=(FDMSO control−Fsample)/(FDMSO control−Fnegative control)×100, with DMSO as the solution control, and no kinase as the negative control.
Target sequence in this assay (Q9UM73 19-1620): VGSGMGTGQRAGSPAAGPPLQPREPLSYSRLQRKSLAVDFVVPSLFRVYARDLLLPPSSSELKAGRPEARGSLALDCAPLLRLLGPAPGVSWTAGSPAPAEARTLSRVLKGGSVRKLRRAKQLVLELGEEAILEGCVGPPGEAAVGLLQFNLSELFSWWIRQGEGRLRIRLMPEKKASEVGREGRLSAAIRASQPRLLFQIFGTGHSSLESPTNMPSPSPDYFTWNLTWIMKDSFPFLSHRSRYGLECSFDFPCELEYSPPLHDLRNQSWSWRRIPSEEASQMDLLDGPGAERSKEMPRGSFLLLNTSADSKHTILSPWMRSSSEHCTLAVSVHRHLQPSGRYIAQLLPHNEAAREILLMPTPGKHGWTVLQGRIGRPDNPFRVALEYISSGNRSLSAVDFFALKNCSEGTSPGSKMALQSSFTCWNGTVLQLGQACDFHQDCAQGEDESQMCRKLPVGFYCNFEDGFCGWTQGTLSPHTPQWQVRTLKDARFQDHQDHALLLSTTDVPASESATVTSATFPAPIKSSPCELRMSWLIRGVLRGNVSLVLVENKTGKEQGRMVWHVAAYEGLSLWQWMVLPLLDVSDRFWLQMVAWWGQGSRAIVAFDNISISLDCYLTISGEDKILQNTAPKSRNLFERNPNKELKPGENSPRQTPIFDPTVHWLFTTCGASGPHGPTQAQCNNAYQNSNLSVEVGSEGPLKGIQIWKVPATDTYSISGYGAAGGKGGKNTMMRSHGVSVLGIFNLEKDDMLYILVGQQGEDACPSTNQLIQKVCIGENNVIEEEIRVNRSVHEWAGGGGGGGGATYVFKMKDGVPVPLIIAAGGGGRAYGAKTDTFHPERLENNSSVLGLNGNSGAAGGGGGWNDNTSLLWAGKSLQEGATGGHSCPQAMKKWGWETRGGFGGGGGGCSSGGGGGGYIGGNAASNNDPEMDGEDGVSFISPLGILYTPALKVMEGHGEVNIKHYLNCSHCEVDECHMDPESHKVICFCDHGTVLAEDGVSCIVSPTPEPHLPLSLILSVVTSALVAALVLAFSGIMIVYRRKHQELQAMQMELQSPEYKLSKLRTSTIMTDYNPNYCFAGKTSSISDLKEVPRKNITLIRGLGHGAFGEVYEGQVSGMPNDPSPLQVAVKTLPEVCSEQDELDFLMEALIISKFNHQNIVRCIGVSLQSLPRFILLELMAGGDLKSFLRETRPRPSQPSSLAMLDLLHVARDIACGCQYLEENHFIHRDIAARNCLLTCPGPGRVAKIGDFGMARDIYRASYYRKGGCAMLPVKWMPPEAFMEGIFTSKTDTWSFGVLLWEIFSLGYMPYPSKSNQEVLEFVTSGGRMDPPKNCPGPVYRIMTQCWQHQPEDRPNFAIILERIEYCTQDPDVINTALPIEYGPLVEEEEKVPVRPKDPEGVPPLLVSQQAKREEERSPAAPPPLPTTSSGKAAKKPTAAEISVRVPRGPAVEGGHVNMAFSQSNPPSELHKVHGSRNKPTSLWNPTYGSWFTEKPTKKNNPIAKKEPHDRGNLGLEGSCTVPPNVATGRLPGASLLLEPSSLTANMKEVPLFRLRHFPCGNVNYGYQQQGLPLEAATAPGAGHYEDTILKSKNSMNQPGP

Experiment [2] deals with T1, ALK kinase. As to the kind of experiment: ALK protein degradation activity by Western blot in H2228 cells. The class given is cell-based. More on the design: H2228 cell lines (human non-small cell line lung cancer cells, available from ATCC); host or cells: H2228 (human non-small cell lung cancer cells); the other entry of the earlier key: EML4 (Q9HC35, Echinoderm microtubule-associated protein-like 4). The settings on record: NCI-H2228, compound 1 μM, treatment for 24 hours, degradation rate by Western blot. On the technique in general: In western blotting, separated proteins are transferred to a membrane and probed.
Target sequence in this assay (Q9UM73 with tags, fused parts or gaps): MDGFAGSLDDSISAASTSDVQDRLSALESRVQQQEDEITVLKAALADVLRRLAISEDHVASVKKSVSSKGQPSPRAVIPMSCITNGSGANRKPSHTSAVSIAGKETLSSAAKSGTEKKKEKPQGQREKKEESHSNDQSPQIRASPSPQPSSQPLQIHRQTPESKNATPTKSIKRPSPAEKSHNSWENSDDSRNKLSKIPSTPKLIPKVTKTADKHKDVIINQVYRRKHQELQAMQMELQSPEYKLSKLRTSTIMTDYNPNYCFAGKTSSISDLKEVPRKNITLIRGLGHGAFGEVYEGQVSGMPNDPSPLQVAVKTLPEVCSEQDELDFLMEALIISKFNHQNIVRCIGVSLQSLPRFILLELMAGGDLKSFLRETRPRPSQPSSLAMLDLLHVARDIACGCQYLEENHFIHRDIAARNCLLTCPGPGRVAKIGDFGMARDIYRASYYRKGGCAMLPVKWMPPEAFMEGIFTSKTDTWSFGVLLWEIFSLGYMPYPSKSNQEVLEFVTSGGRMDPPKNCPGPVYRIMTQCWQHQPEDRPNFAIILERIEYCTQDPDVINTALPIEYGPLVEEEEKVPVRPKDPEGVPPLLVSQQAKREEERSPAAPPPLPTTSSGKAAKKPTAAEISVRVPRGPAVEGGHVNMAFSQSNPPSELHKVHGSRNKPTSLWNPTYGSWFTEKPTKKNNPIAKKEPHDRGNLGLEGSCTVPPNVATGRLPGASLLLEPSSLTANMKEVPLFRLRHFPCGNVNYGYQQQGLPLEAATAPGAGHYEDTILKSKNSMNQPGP

A word on the inhibition: it is the drop in the measured response relative to a control, in per cent. Regarding `Cc1cc(Nc2ncc(Cl)c(Nc3ccccc3S(=O)(=O)C(C)C)n2)c(OC(C)C)cc1C1CCN(CCOCCOCCNc2cccc3c2C(=O)N(C2CCC(=O)NC2=O)C3=O)CC1` (stereo not drawn) [Compound 45], 100 µM produced 97% inhibition in the experiment on SU-DHL-1 cells. Moreover, the inhibition at 0.1 µM against ALK kinase [1] was found to be 98%. Also, at ALK kinase [2], the inhibition at 1 µM is > 90%.

On to `Cc1cc(Nc2ncc(Cl)c(Nc3ccccc3S(=O)(=O)C(C)C)n2)c(OC(C)C)cc1C1CCN(CCOCCOCCOCCOc2cccc3c2C(=O)N(C2CCC(=O)NC2=O)C3=O)CC1` (stereo not drawn) [Compound 15], for which, in the experiment with SU-DHL-1 cells, 100 µM produced 100% inhibition. This compound also displayed an inhibition at 0.1 µM against ALK kinase [1] of 95%. Further, on ALK kinase [2], the inhibition at 1 µM was > 90%.
